Laboratory results: ChEMBL document CHEMBL3407372, “Photodynamic effects induced by meso-tris(pentafluorophenyl)corrole and its cyclodextrin conjugates on cytoskeletal components of HeLa cells” (Eur J Med Chem, 2015)
Active and inactive are the calls of the source. The calls are words filed in the database; no cut-off is given here.

What was measured:
[1] = system: HeLa; assay: Cytotoxicity against human HeLa cells assessed as survival fraction at 1x10'-7 M incubated 24 hrs in dark by MTT assay; format: functional; conditions: read-out: Survival
[2] = system: HeLa; assay: Cytotoxicity against human HeLa cells assessed as survival fraction at 1x10'-5 M incubated 24 hrs in dark by MTT assay; format: functional; conditions: read-out: Survival
[3] = system: HeLa; assay: Phototoxicity against human HeLa cells assessed as survival fraction at 1x10'-7 M incubated 24 hrs under 3 J/cm'2 red light with irradiance of 5 mW/cm'2 by MTT assay; format: functional; conditions: light or radiation study, read-out: Survival
[4] = system: HeLa; assay: Phototoxicity against human HeLa cells assessed as survival fraction at 1x10'-7 M incubated 24 hrs under 6 J/cm'2 red light with irradiance of 5 mW/cm'2 by MTT assay; format: functional; conditions: light or radiation study, read-out: Survival
[5] = system: HeLa; assay: Phototoxicity against human HeLa cells assessed as survival fraction at 1x10'-7 M incubated 24 hrs under 9 J/cm'2 red light with irradiance of 5 mW/cm'2 by MTT assay; format: functional; conditions: light or radiation study, read-out: Survival
[6] = system: HeLa; assay: Phototoxicity against human HeLa cells assessed as survival fraction at 1x10'-5 M incubated 24 hrs under 3 J/cm'2 red light with irradiance of 5 mW/cm'2 by MTT assay; format: functional; conditions: light or radiation study, read-out: Survival
[7] = system: HeLa; assay: Phototoxicity against human HeLa cells assessed as survival fraction at 1x10'-5 M incubated 24 hrs under 6 J/cm'2 red light with irradiance of 5 mW/cm'2 by MTT assay; format: functional; conditions: light or radiation study, read-out: Survival
[8] = system: HeLa; assay: Phototoxicity against human HeLa cells assessed as survival fraction at 1x10'-5 M incubated 24 hrs under 9 J/cm'2 red light with irradiance of 5 mW/cm'2 by MTT assay; format: functional; conditions: light or radiation study, read-out: Survival
[9] = system: HeLa; assay: Phototoxicity against human HeLa cells assessed as survival fraction at 1x10'-5 M incubated 24 hrs under 12 J/cm'2 red light with irradiance of 5 mW/cm'2 by MTT assay; format: functional; conditions: light or radiation study, read-out: Survival
[10] = system: HeLa; assay: Phototoxicity against human HeLa cells assessed as lethality rate at 1x10'-5 M incubated 24 hrs under 3 J/cm'2 red light with irradiance of 5 mW/cm'2 by MTT assay; format: functional; conditions: light or radiation study
[11] = system: HeLa; assay: Phototoxicity against human HeLa cells assessed as lethality rate at 1x10'-5 M incubated 24 hrs under 6 J/cm'2 red light with irradiance of 5 mW/cm'2 by MTT assay; format: functional
[12] = system: HeLa; assay: Drug uptake in human HeLa cells assessed as nucleus at 1x10'-5 M incubated 24 hrs by red emission under fluorescence microscopy; format: ADME, cell-based; conditions: 10 µM
[13] = system: HeLa; assay: Drug uptake in human HeLa cells assessed as golgi apparatus at 1x10'-5 M incubated 24 hrs by mitotracker green; format: ADME, cell-based; conditions: 10 µM
[14] = system: HeLa; assay: Phototoxicity against human HeLa cells assessed as changes in microtubular organization at LD20 concentration incubated 24 hrs under 12 J/cm'2 red light with irradiance of 5 mW/cm'2 by immunofluorescence staining; format: functional, cell-based
[15] = system: HeLa; assay: Phototoxicity against human HeLa cells assessed as abnormalities in chromosome disposition in metaphase plate at LD20 concentration incubated 24 hrs under 12 J/cm'2 red light with irradiance of 5 mW/cm'2 by immunofluorescence staining; format: functional, cell-based
[16] = system: HeLa; assay: Cytotoxicity against human HeLa cells assessed as survival fraction at 1x10'-4 M incubated 24 hrs in dark by MTT assay; format: functional; conditions: read-out: Survival
[17] = system: HeLa; assay: Phototoxicity against human HeLa cells assessed as survival fraction at 1x10'-4 M incubated 24 hrs under 6 J/cm'2 red light with irradiance of 5 mW/cm'2 by MTT assay; format: functional; conditions: light or radiation study, read-out: Survival
[18] = system: HeLa; assay: Phototoxicity against human HeLa cells assessed as survival fraction at 1x10'-4 M incubated 24 hrs under 9 J/cm'2 red light with irradiance of 5 mW/cm'2 by MTT assay; format: functional; conditions: light or radiation study, read-out: Survival
[19] = system: HeLa; assay: Phototoxicity against human HeLa cells assessed as survival fraction at 1x10'-4 M incubated 24 hrs under 12 J/cm'2 red light with irradiance of 5 mW/cm'2 by MTT assay; format: functional; conditions: light or radiation study, read-out: Survival
[20] = system: HeLa; assay: Phototoxicity against human HeLa cells assessed as lethality rate at 1x10'-5 M incubated 24 hrs under 9 J/cm'2 red light with irradiance of 5 mW/cm'2 by MTT assay; format: functional
[21] = system: HeLa; assay: Drug uptake in human HeLa cells assessed as located in granules at 1x10'-5 M incubated 24 hrs by red emission under fluorescence microscopy; format: ADME, cell-based; conditions: 10 µM
[22] = system: HeLa; assay: Drug uptake in human HeLa cells assessed as located in cytoplasm at 1x10'-5 M incubated 24 hrs by red emission under fluorescence microscopy; format: ADME, cell-based; conditions: 10 µM
[23] = system: HeLa; assay: Drug uptake in human HeLa cells assessed as lysosomes at 1x10'-5 M incubated 24 hrs by acridine orange staining; format: ADME, cell-based; conditions: 10 µM
[24] = system: HeLa; assay: Drug uptake in human HeLa cells assessed as filamentous pattern of mitochondria at 1x10'-5 M incubated 24 hrs by mitotracker green; format: ADME, cell-based; conditions: 10 µM
[25] = system: HeLa; assay: Drug uptake in human HeLa cells assessed as juxtanuclear portion at 1x10'-5 M incubated 24 hrs by ceramide; format: ADME, cell-based; conditions: 10 µM
[26] = system: HeLa; assay: Phototoxicity against human HeLa cells assessed as changes in microtubular organization at LD70 concentration incubated 24 hrs under 12 J/cm'2 red light with irradiance of 5 mW/cm'2 by immunofluorescence staining; format: functional, cell-based
[27] = system: HeLa; assay: Phototoxicity against human HeLa cells assessed as abnormalities in chromosome disposition in metaphase plate at LD70 concentration incubated 24 hrs under 12 J/cm'2 red light with irradiance of 5 mW/cm'2 by immunofluorescence staining; format: functional, cell-based

SMILES: OC[C@H]1O[C@@H]2O[C@H]3O[C@H](COc4c(F)c(F)c(-c5c6ccc([nH]6)c(-c6c(F)c(F)c(F)c(F)c6F)c6nc(c(-c7c(F)c(F)c(F)c(F)c7F)c7ccc([nH]7)c7ccc5[nH]7)C=C6)c(F)c4F)[C@@H](O[C@H]4[C@H](O)[C@@H](O)[C@@H](O[C@H]5[C@H](O)[C@@H](O)[C@@H](O[C@H]6[C@H](O)[C@@H](O)[C@@H](O[C@H]7[C@@H](O)[C@@H](O)[C@@H](O[C@H]8[C@H](O)[C@@H](O)[C@@H](O[C@H]1[C@H](O)[C@H]2O)O[C@@H]8CO)O[C@@H]7CO)O[C@@H]6CO)O[C@@H]5CO)O[C@@H]4CO)[C@H](O)[C@H]3O
- viability at 0.1 µM [1]: 113%
- viability at 10 µM [2]: 162%
- viability at 0.1 µM [3]: 92%
- viability at 0.1 µM [4]: 80.2%
- viability at 0.1 µM [5]: 90.1%
- viability at 10 µM [6]: 93.6%
- viability at 10 µM [7]: 95.6%
- viability at 10 µM [8]: 81.6%
- viability at 10 µM [9]: 81.6%
- inhibition at 10 µM [10]: 20%
- Activity [11]: 22%
- Drug uptake [12]: Active
- Drug uptake [13]: Active
- Activity [14]: Active
- Activity [15]: Active

SMILES: OC[C@H]1O[C@@H]2O[C@H]3O[C@H](COc4c(F)c(F)c(-c5c6nc(c(-c7c(F)c(F)c(F)c(F)c7F)c7ccc([nH]7)c(-c7c(F)c(F)c(OC[C@H]8O[C@@H]9O[C@H]%10O[C@H](CO)[C@@H](O[C@H]%11O[C@H](CO)[C@@H](O[C@H]%12O[C@H](CO)[C@@H](O[C@H]%13O[C@H](CO)[C@@H](O[C@H]%14O[C@H](CO)[C@@H](O[C@H]%15O[C@H](CO)[C@@H](O[C@H]8[C@H](O)[C@H]9O)[C@H](O)[C@H]%15O)[C@H](O)[C@H]%14O)[C@H](O)[C@H]%13O)[C@@H](O)[C@H]%12O)[C@H](O)[C@H]%11O)[C@H](O)[C@H]%10O)c(F)c7F)c7ccc([nH]7)c7ccc5[nH]7)C=C6)c(F)c4F)[C@@H](O[C@H]4[C@H](O)[C@@H](O)[C@@H](O[C@H]5[C@H](O)[C@@H](O)[C@@H](O[C@H]6[C@H](O)[C@@H](O)[C@@H](O[C@H]7[C@@H](O)[C@@H](O)[C@@H](O[C@H]8[C@H](O)[C@@H](O)[C@@H](O[C@H]1[C@H](O)[C@H]2O)O[C@@H]8CO)O[C@@H]7CO)O[C@@H]6CO)O[C@@H]5CO)O[C@@H]4CO)[C@H](O)[C@H]3O
- viability at 10 µM [2]: 121%
- viability at 100 µM [16]: 86%
- viability at 10 µM [7]: 121%
- viability at 10 µM [8]: 111%
- viability at 10 µM [9]: 57.6%
- viability at 100 µM [17]: 86%
- viability at 100 µM [18]: 85%
- viability at 100 µM [19]: 57.6%

SMILES: Fc1c(F)c(F)c(-c2c3nc(c(-c4c(F)c(F)c(F)c(F)c4F)c4ccc([nH]4)c4ccc([nH]4)c(-c4c(F)c(F)c(F)c(F)c4F)c4ccc2[nH]4)C=C3)c(F)c1F
- viability at 10 µM [2]: 108%
- viability at 100 µM [16]: 117%
- viability at 10 µM [6]: 104%
- viability at 10 µM [7]: 80.9%
- viability at 10 µM [8]: 44.5%
- viability at 10 µM [9]: 38.5%
- Activity [20]: 70%
- Drug uptake [21]: Active
- Drug uptake [22]: Active
- Drug uptake [23]: Active
- Drug uptake [24]: Active
- Drug uptake [25]: Active
- Activity [26]: Active
- Activity [27]: Active
